Source: ChEMBL document CHEMBL5331134, “Identification of Brain-Penetrant ATP-Competitive mTOR Inhibitors for CNS Syndromes” (J Med Chem, 2023)

Assay: Tmax in cynomolgus monkey at 0.3 mg/kg, po measured upto 24 hrs by LC/MS/MS analysis
Assay type: ADME, organism-based, Macaca fascicularis
Settings: in vivo

Tmax: 1.2 h
Structure (SMILES): C[C@@H]1COCCN1c1cc(N2CCOC[C@@H]2C)nc2[nH]c(-c3ccccn3)nc12
